Laboratory results: publication PMC3109985 (Organic letters, 2011)
Read-outs that look alike come from different tables or passages of the source.

What was measured:
HIV-1 NL4-3 = experiment: Anti-HIV assay: HIV-1 NL4-3 replication in MT4 cells, p24 ELISA; type: cell-based
[1] = Cytotoxicity to MT4 cells, CellTiter-Glo Luminescent Cell Viability Assay; type: cell-based; details: human
[2] = read-out: anti-HIV (NL4-3) EC90, concentration that inhibited HIV-1 replication by 90%, MT4 cells, 4-day post infection, p24 ELISA
[3] = Human immunodeficiency virus 1, NL43, MT4, 96 h, read-out: anti-HIV (NL4-3) EC90

Row | Compound | EC90 (HIV-1 NL4-3; [2]) [nM] | IC50 [1] [nM] | EC90 (HIV-1 NL4-3; [3]) [nM] | EC90 (HIV-1 NL4-3; Human immunodeficiency virus 1, NL43, MT4, read-out: anti-HIV EC90) [nM]
1 | C=C(C)[C@]12C[C@@H](COC(=O)c3ccccc3)[C@]34OC5(CCCCCCC[C@H](C)[C@@H]6[C@@H]3[C@]3(O[C@]6(C)OC3=O)[C@H](O)[C@@]3(CO)O[C@H]3[C@H]4[C@H]1O5)O2 [Compound 6, Stelleralide C] | 91 | – | – | –
2 | C=C(C)[C@]12C[C@@H](COC(=O)c3ccccc3)[C@@]34OC5(CCCCCCC[C@@H](C)[C@H]6[C@H](C)C(=O)[C@@](O)([C@H](O)[C@@]7(CO)O[C@H]7[C@H]3[C@H]1O5)[C@@H]64)O2 [Compound 3, wikstroelide F] | 1.7 | – | – | –
3 | C=C(C)[C@]12C[C@@H](COC(C)=O)[C@@]34O[C@]5(O[C@@H]1[C@@H]3[C@@H]1O[C@]1(CO)[C@@H](O)[C@@]1(O)[C@H]4[C@H]([C@H](C)[C@@H]1OC(=O)c1ccccc1)[C@H](C)CCCCCC[C@H]5O)O2 [Compound 4, Stelleralide A] | 0.4 | – | – | –
4 | C=C(C)[C@]12C[C@@H](C)[C@@]34O[C@](CCCCCCCCC)(O[C@@H]1[C@@H]3[C@@H]1O[C@]1(CO)[C@@H](O)[C@]1(O)C(=O)C(C)=C[C@H]14)O2 [Compound 7, simplexin] | – | 22500 | 8 | –
5 | C=C(C)[C@]12C[C@@H](C)[C@@]34OC5(CCCCCCC[C@H](C)[C@H]6[C@H](C)[C@H](OC(=O)c7ccccc7)[C@@](O)([C@H](O)[C@@]7(CO)O[C@H]7[C@H]3[C@H]1O5)[C@@H]64)O2 [Compound 2, pimelea factor P2] | – | 3200 | 1.4 | –
6 | Stelleralide B [Compound 5] | 1.6 | – | – | –
7 | C=C(C)[C@@]12C[C@@H](COC(=O)c3ccccc3)[C@@]34OC5(O[C@@H]1[C@@H]3[C@@H]1O[C@]1(CO)[C@@H](O)[C@@]1(O)[C@H]4[C@H]([C@H](C)[C@@H]1OC(=O)c1ccccc1)[C@H](C)CCCCCC[C@H]5O)O2 [Compound 1, gnidimacrin] | – | 2800 | 0.41 | < 1
8 | C=C(C)[C@]12C[C@@H](C)[C@@]34O[C@](/C=C/C=C/CCCCCCCCC)(O[C@@H]1[C@@H]3[C@@H]1O[C@]1(CO)[C@@H](O)[C@]1(O)C(=O)C(C)=C[C@H]14)O2 [Compound 8, huratoxin] | 5.8 | – | – | –
